Where two headings read alike, the source gives them in different places.
What was measured:
endogenous TFEB = experiment: TFEB nuclear translocation, immunocytochemistry high-content imaging; assay type: cell-based
endogenous TFE3 = experiment: TFE3 nuclear translocation, immunocytochemistry high-content imaging; assay type: cell-based
SH-SY5Y cells [1] = experiment: Chemotype enrichment analysis of PKIS2 primary screen hit categories
SH-SY5Y cells [2] = tested on: SH-SY5Y cells; also: reference of the scale not given here
SH-SY5Y cells [3] = conditions: human
SH-SY5Y cells [4] = conditions: human; remark: listed apart in the source

Row | AK (SH-SY5Y cells [3]; SH-SY5Y cells, 24 h, 1 µM) | Nuclear Count (SH-SY5Y cells [4]; SH-SY5Y cells, 24 h, 1 µM) | Structure (SMILES) | TFEB % (endogenous TFEB) | TFE3 % (endogenous TFE3) | Outcome (SH-SY5Y cells [1]) | DQ Intensity (SH-SY5Y cells [2]) | DQ Spot (SH-SY5Y cells [2]) | AK (SH-SY5Y cells [3]; 24 h, 1 µM) | Nuclear Count (SH-SY5Y cells [4]; 24 h, 1 µM) | AK (SH-SY5Y cells [3]) | Nuclear Count (SH-SY5Y cells [4])
1 | 82.09 | 74.04 | Nc1n[nH]c2ncc(-c3ccccc3)cc12 [SB-517081] | 4.88% | 10.19% | DQ Only | 121.05 | 122.46 | – | – | – | –
2 | 99.42 | 69.78 | Nc1n[nH]c2nnc(-c3ccccc3)cc12 [SB-517389] | 5.21% | 18.57% | DQ Only | 136.15 | 127.72 | – | – | – | –
3 | 230.70 | 59.85 | CCCC(=O)Nc1n[nH]c2ncc(-c3cccc4ccccc34)cc12 [SB-642057] | 5.52% | 14.05% | TOXIC | 126.93 | 107.10 | – | – | – | –
4 | 133.76 | 103.55 | O=C(Nc1n[nH]c2nc(-c3ccc(O)cc3)ccc12)C1CC1 [SB-710363] | 15.49% | 18.16% | DQ Only | 87.11 | 130.75 | – | – | – | –
5 | 105.72 | 107.31 | O=C(Nc1n[nH]c2nc(-c3cccc(O)c3)ccc12)C1CC1 [SB-711805] | 10.76% | 23.15% | TFE3 | 78.27 | 112.05 | – | – | – | –
6 | 83.64 | 45.35 | O=C(Nc1n[nH]c2nc(-c3ccccc3)c(Cl)cc12)C1CC1 [SB-734909] | 6.63% | 10.45% | DQ Only | 123.78 | 126.24 | – | – | – | –
7 | 87.38 | 103.32 | O=C(Nc1n[nH]c2nc(-c3ccco3)c(Br)cc12)C1CCN(Cc2ccccc2)C1 (stereo not shown) [SB-742034] | 3.21% | 21.82% | TFE3 | 103.44 | 100.36 | – | – | – | –
8 | 91.51 | 71.42 | COc1cccc(C2=C(Nc3cccc(C(=O)O)c3)C(=O)NC2=O)c1 [UNC10225061A] | 7.42% | 19.97% | TFE3 | 83.20 | 110.64 | – | – | – | –
9 | 157.36 | 105.86 | CN(C1=C(c2ccccc2)C(=O)NC1=O)c1ccccc1 [UNC10225087A] | 6.00% | 7.91% | TOXIC | 118.90 | 112.39 | – | – | – | –
10 | 100.20 | 132.24 | O=C1NC(=O)C(N2CCc3ccccc32)=C1c1cccc(Cl)c1 [UNC10225137A] | 4.79% | 20.87% | TFE3 | 107.62 | 107.27 | – | – | – | –
11 | 73.45 | 95.91 | Nc1n[nH]c2nnc(-c3ccccc3)c(-c3ccccc3)c12 [UNC10225185A] | 8.38% | 12.30% | – | 101.09 | 91.84 | – | – | – | –
12 | 104.34 | 155.73 | CSc1ccc(NC2=C(c3ccc(Cl)cc3)C(=O)NC2=O)cc1 [UNC10225216A] | 4.27% | 17.03% | – | 88.23 | 93.29 | – | – | – | –
13 | 80.02 | 109.36 | COc1ccc(C2=C(Nc3cccc(C(=O)O)c3)C(=O)NC2=O)cc1 [UNC10225244A] | 15.51% | 6.87% | – | 74.93 | 82.38 | – | – | – | –
14 | 83.08 | 86.30 | O=C1NC(=O)C(N2CCc3ccccc32)=C1c1ccccc1Cl [UNC10225255A] | 3.84% | 11.28% | DQ Only | 155.35 | 121.27 | – | – | – | –
15 | 136.91 | 119.42 | COc1cccc(C2=C(Nc3cc(Cl)c(O)c(Cl)c3)C(=O)NC2=O)c1 [UNC10225267A] | 6.51% | 12.35% | – | 123.38 | 111.15 | – | – | – | –
16 | – | – | Cc1ccc(C(=O)NC2CCCC2)cc1-c1ccc(C(=O)NCC2CC2)cc1 [UNC10225270A] | 16.20% | 10.04% | – | 84.15 | 81.23 | 80.83 | 92.17 | – | –
17 | 133.69 | 80.70 | COc1cccc(C2=C(Nc3cccc(Cl)c3)C(=O)NC2=O)c1 [UNC10225288A] | 6.04% | 8.01% | – | 106.89 | 108.64 | – | – | – | –
18 | 102.75 | 77.10 | COc1ccc(C2=C(Nc3cccc(O)c3)C(=O)NC2=O)cc1 [UNC10225299A] | 8.50% | 15.17% | DQ Only | 174.21 | 115.16 | – | – | – | –
19 | 105.29 | 103.43 | CSc1ccc(NC2=C(c3ccccc3Cl)C(=O)NC2=O)cc1 [UNC10225346A] | 6.03% | 14.52% | – | 121.64 | 113.39 | – | – | – | –
20 | – | – | Cc1ccc(-n2nc(C(C)(C)C)cc2NC(=O)Nc2ccc(OCCN3CCOCC3)c3ccccc23)cc1 [UNC10225354A] | 7.39% | 11.86% | – | 143.22 | 116.14 | – | – | 120.63 | 65.33
21 | 108.76 | 106.99 | Fc1ccc(-c2ncn(C3CCNCC3)c2-c2ccnc(Oc3ccc(-c4ccccc4)cc3)n2)cc1 [UNC10225377A] | 13.41% | 24.21% | TFE3 + DQ Int | 170.99 | 76.67 | – | – | – | –
22 | 101.77 | 97.83 | COc1cccc(C2=C(Nc3cccc(O)c3)C(=O)NC2=O)c1 [UNC10225456A] | 8.57% | 7.19% | – | 100.94 | 105.72 | – | – | – | –
23 | 74.47 | 85.62 | O=C1NC(=O)C(c2ccc(Cl)cc2)=C1Nc1cccc(Cl)c1 [UNC10225464A] | 3.70% | 10.27% | – | 132.70 | 111.59 | – | – | – | –
